The text below walks through data of article PMC10054240, “New Inhibitors of Respiratory Syncytial Virus (RSV) Replication Based on Monoterpene-Substituted Arylcoumarins” (Molecules, 2023).

For one data set, the system named is RSV A strain A2. The data set can be described thus: Antiviral activity against RSV A strain A2 in HEp-2 cells (ELISA virus titer). The class given is cell-based, respiratory syncytial virus. Particulars: for pIC50 (-lg[IC50]) / IC50: from Table 1 values; for IC50: HEp-2, RSV A, read-out: pIC50 (-lg[IC50]) (converted).
Another data set relates to RSV A2 virus. The data set can be described thus: Time-of-addition assay. The following applies: 300 μg/mL, RSV A2, titer by ELISA. The class given is cell-based, respiratory syncytial virus. Here is the method:
Compounds 14e and 14b at a concentration of 300 μg/mL were added at different time intervals before, after, or during virus inoculation (Figure 2 and Figure 3). The time of compound addition was counted off from Point 0, i.e., the moment of virus entry into the cell. RSV A2 virus was added to cells at a time conventionally designated as […]; then, cells were kept at a temperature of 40 °C for 1 h. Next, at Point 0, unbound virus was washed off, fresh medium containing compounds at the same concentration was added, and the cells were transferred to a thermostat at 37 °C where they were incubated for 25 h. After this, medium collected from each well was used to make a series of ten-fold dilutions with fresh cell culture. The cells were incubated for 6 days. The viral titer was measured by ELISA.
Compounds were added at different time points before, after, or simultaneously with the introduction of the virus. The time of addition of the compounds was counted from Point 0, i.e., the time of entry of the virus into the cell. During the period (−1)–0, the cells together with the virus were incubated at 40 °C. All other experiments were carried out at 37 °C. RSV virus A […] was added to the cells at a time that was conventionally designated as […], after which the cells were kept for an hour at a temperature of 40 °C. Then, at Point 0, the virus was unbound. […]

Data set [1] is described as follows: Cytotoxicity on non-infected HEp-2 cells, MTT assay. Type of data set: cell-based. The following applies: human, non-infected HEp-2 cells, CC50 (50% cytotoxic concentration), MTT, 24 h.
The next data set relates to HEp-2 cells. The description is as above. The class given is cell-based. The following applies: for CC50: read-out: CC50 (50% cytotoxic concentration), MTT, 24 h.
The next data set concerns RSV type B. Briefly: Inhibition of reproduction of RSV type B. Type of data set: cell-based. The following applies: human respiratory syncytial virus. Here is the method:
The antiviral activity against the respiratory syncytial virus was assessed in a series of 3-fold dilutions of test compounds, starting from ½CC50, which were added to HEp-2 cell culture, at a double concentration, 100 μL per well, followed by addition of 100 μL of the virus in a series of 10-fold dilutions. Cells were incubated at 37 °C and 5% CO2 for 1 h. Then, the virus was washed out, and the compounds were again added at a single concentration and incubated at 37 °C and 5% CO2 for 6 days. For the enzyme-linked immunosorbent assay (ELISA), cell culture was fixed with cold 80% acetone at −20 °C for 15 min, and then washed with phosphate buffered saline containing 0.05% Tween 20. Next, a solution of primary mouse anti-RSV F protein antibodies was added to the culture and incubated at room temperature under continuous stirring for 2 h. Then, cells were again washed with buffer, secondary anti-mouse antibodies were added, and the cells were incubated under continuous stirring for 2 h. […] After 5 min, the reaction was stopped with 0.1 M sulfuric acid, and optical density of the solution was measured at a wavelength of 450 nm. Wells with absorbance values two fold or greater than the cell control were considered to be […]. The virus titer was calculated using the Reed and Muench method. […]

Setting [2] is: read-out: EC50 (50% effective concentration).
Where [3] appears, read: human respiratory syncytial virus.
[4] abbreviates: human respiratory syncytial virus, HEp-2, read-out: EC50 (50% effective concentration).
Setting [5] is: human respiratory syncytial virus, read-out: EC50 (50% effective concentration), RSV A strain A2, HEp-2 cells.

Values joined by “and” are separate entries in the source; they are usually repeats but may differ in a detail not shown here. Identical values can stand only once. Like-named read-outs stand apart in the source and are kept apart here.

On to `CC1(C)C2CC=C(COc3ccc4c(-c5ccccc5)cc(=O)oc4c3)C1C2` (centres unmarked) [Compound 14b], for which the “SI (selective index)” value in the data set on RSV A strain A2 is 32.8. For the same molecule, in the data set on RSV A strain A2 (RSV A), the “pIC50 (-lg[IC50])” value is listed as 4.75. Moreover, the EC50 in the data set with RSV A strain A2 (setting [2]) worked out at 18 ± 0.9 µM. Also, in the data set on RSV A2 virus, the “effect on viral titer depending on time of addition (in words)” value is “reduced the viral titer at all time periods, except for prophylactic use 2 h before virus entry into cells”. Also, the CC50 at 24 h in data set [1] turned out to be 591 ± 85.2 µM.

On to `CC1(C)C2CC=C(COc3ccc4c(-c5ccccc5)cc(=O)oc4c3)C1C2` (centres unmarked) [Compound 14c], for which, in the data set on RSV A strain A2, the “SI (selective index)” value stood at 3.5 and the “antiviral activity against RSV A (in words)” value is listed as “not active”. In the data set on RSV A strain A2 (RSV A), the “pIC50 (-lg[IC50])” value came to 3.63. The EC50 with RSV A strain A2 (setting [2]) was determined as 234 ± 27.1 µM. Also, the CC50 in the data set on HEp-2 cells was 813 ± 32.4 µM.

For the molecule `CC1(C)[C@H]2CC=C(CCCOc3ccc4c(-c5ccccc5)cc(=O)oc4c3)[C@@H]1C2` [Compound 14e, 7-(3-((1R,5S)-6,6-Dimethylbicyclo[3.1.1]hept-2-en-2-yl)propoxy)-4-phenyl-2H-chromen-2-one], in the data set with RSV A strain A2 (RSV A, HEp-2 cells), the “antiviral activity against RSV A (in words)” value is recorded as “inhibiting virus replication at low micromolar concentrations”. Further, in the data set on RSV A strain A2 (setting [3]), the IC50 was 7.59 µM. Further, the EC50 in the data set with RSV A strain A2 (setting [4]) amounted to 7.5 ± 0.4 µM; in the data set with RSV type B, 3 ± 0.2 µM. Further, the “effect on viral titer depending on time of addition (in words)” value in the data set on RSV A2 virus is “reduced the viral titer upon addition at all time periods through 6 h after infection”. In data set [1], this molecule returned a CC50 at 24 h of 1440 ± 85.1 µM.

Consider `CC1(C)C2CC=C(COc3ccc4c(-c5ccc(Br)cc5)cc(=O)oc4c3)C1C2` (centres unmarked) [Compound 15c], for which, in the data set on RSV A strain A2, the “SI (selective index)” value was 1.9. Further, the “pIC50 (-lg[IC50])” value with RSV A strain A2 (RSV A) is 4.31 and 4.30. Moreover, in the data set with RSV A strain A2 (setting [2]), the EC50 came out at 48.7 ± 7.6 µM. For the same molecule, in the data set with HEp-2 cells, the CC50 turned out to be 90.8 ± 11 µM.

Consider `CC1(C)C2CC=C(COc3ccc4c(-c5ccc(F)cc5)cc(=O)oc4c3)C1C2` (centres unmarked) [Compound 16b], for which the “SI (selective index)” value with RSV A strain A2 stood at 2.9. Moreover, the “pIC50 (-lg[IC50])” value with RSV A strain A2 (RSV A) is 3.99. In addition, the EC50 in the data set on RSV A strain A2 (setting [2]) was 103 ± 7.1 µM. Besides, the CC50 in the data set with HEp-2 cells is 297 ± 8.5 µM.

As for `CC1(C)C2CC=C(COc3ccc4c(-c5ccc(F)cc5)cc(=O)oc4c3)C1C2` (centres unmarked) [Compound 16c], in the data set with RSV A strain A2, the “SI (selective index)” value is 1.4. Further, in the data set with RSV A strain A2 (RSV A), the “pIC50 (-lg[IC50])” value turned out to be 4.84. Moreover, the EC50 in the data set on RSV A strain A2 (setting [2]) turned out to be 14.3 ± 2.9 µM. For the same molecule, the CC50 with HEp-2 cells worked out at 20.5 ± 4.9 µM.

In the case of `O=c1cc(-c2ccc(F)cc2)c2ccc(OCc3ccccc3)cc2o1` [Compound 16g, 7-(Benzyloxy)-4-(4-fluorophenyl)-2H-chromen-2-one], in the data set on RSV A strain A2, the “SI (selective index)” value is less than 0.9. Also, in the data set with RSV A strain A2 (RSV A), the “pIC50 (-lg[IC50])” value came out at 3.20. In addition, the IC50 in the data set with RSV A strain A2 (setting [3]) was 692 µM. Moreover, the EC50 in the data set with RSV A strain A2 (human respiratory syncytial virus, HEp-2, read-out: EC50 (50% effective concentration), RSV A strain A2, HEp-2 cells) is more than 690 µM. Further, the CC50 at 24 h in data set [1] is 655 ± 29.7 µM.

With `COc1ccc(-c2cc(=O)oc3cc(OC/C=C(\C)CCC=C(C)C)ccc23)cc1` [Compound 17a], in the data set with RSV A strain A2, the “SI (selective index)” value was 5.8. Further, the “pIC50 (-lg[IC50])” value with RSV A strain A2 (RSV A) came out at 4.20. Moreover, in the data set on RSV A strain A2 (setting [3]), the IC50 is 58.9 µM. Moreover, the EC50 in the data set with RSV A strain A2 (setting [4]) came to 58.3 ± 8.5 µM. The CC50 at 24 h in data set [1] came to 339 ± 26.3 µM.

For `COc1ccc(-c2cc(=O)oc3cc(OCC4=CCC5CC4C5(C)C)ccc23)cc1` (centres unmarked) [Compound 17b], the “SI (selective index)” value in the data set with RSV A strain A2 was less than 1. Also, in the data set with RSV A strain A2 (RSV A), the “pIC50 (-lg[IC50])” value amounted to 4.90. In addition, the IC50 with RSV A strain A2 (setting [3]) is more than 12.6 µM. In the data set with RSV A strain A2 (setting [4]), the EC50 was more than 12 µM. For the same molecule, the CC50 at 24 h in data set [1] was found to be 12.4 ± 2.8 µM.

As to `COc1ccc(-c2cc(=O)oc3cc(OCC4=CCC5CC4C5(C)C)ccc23)cc1` (centres unmarked) [Compound 17c], in the data set with RSV A strain A2, the “SI (selective index)” value is reported as less than 1. Further, the “pIC50 (-lg[IC50])” value in the data set with RSV A strain A2 (RSV A) is < 4.8 and 4.80. In the data set with RSV A strain A2 (setting [2]), the EC50 was more than 15 µM. Besides, the CC50 in the data set on HEp-2 cells is 14.7 ± 2.9 µM.

Turning to `COc1ccc(-c2cc(=O)oc3cc(OCCC4=CCC5CC4C5(C)C)ccc23)cc1` (centres unmarked) [Compound 17d], the “SI (selective index)” value with RSV A strain A2 was 10.6. In addition, the IC50 with RSV A strain A2 (setting [3]) was 64.6 µM. The EC50 in the data set with RSV A strain A2 (setting [4]) was found to be 64.1 ± 5.4 µM. The molecule further returned a CC50 at 24 h in data set [1] of 677 ± 22.9 µM.

Consider `COc1ccc(-c2cc(=O)oc3cc(OCCCC4=CC[C@H]5C[C@@H]4C5(C)C)ccc23)cc1` [Compound 17e, 7-(3-((1R,5S)-6,6-Dimethylbicyclo[3.1.1]hept-2-en-2-yl)propoxy)-4-(4-methoxyphenyl)-2H-chromen-2-one], for which the EC50 in the data set with RSV A strain A2 (setting [5]) came out at 35.9 ± 5.7 µM. The CC50 at 24 h in data set [1] was more than 100 µM.

For the molecule `COc1ccc(-c2cc(=O)oc3cc(OCCCCC4=CC[C@H]5C[C@@H]4C5(C)C)ccc23)cc1` [Compound 17f, 7-(4-((1R,5S)-6,6-Dimethylbicyclo[3.1.1]hept-2-en-2-yl)butoxy)-4-(4-methoxyphenyl)-2H-chromen-2-one], the “pIC50 (-lg[IC50])” value with RSV A strain A2 (RSV A) was determined as 4.97. The IC50 in the data set on RSV A strain A2 (setting [3]) is more than 12.6 µM. Besides, the EC50 in the data set with RSV A strain A2 (setting [4]) came out at 10 µM; in the data set on RSV A strain A2 (setting [2]), 10.8 ± 1 µM. Further, the CC50 at 24 h in data set [1] worked out at 117 ± 7 µM.

In the case of `COc1ccc(-c2cc(=O)oc3cc(OCc4ccccc4)ccc23)cc1` [Compound 17g], the “SI (selective index)” value with RSV A strain A2 is recorded as less than 1. The “pIC50 (-lg[IC50])” value in the data set with RSV A strain A2 (RSV A) is reported as 4.80. Besides, the IC50 with RSV A strain A2 (setting [3]) was more than 17 µM. Further, the EC50 in the data set on RSV A strain A2 (setting [4]) was more than 17 µM. Besides, the CC50 at 24 h in data set [1] worked out at 16.8 ± 3.2 µM.

For the molecule `CC1(C)[C@H]2CC=C(CNc3ccc4c(-c5ccccc5)cc(=O)oc4c3)[C@@H]1C2` [Compound 21, 7-(((1R,5S)-6,6-Dimethylbicyclo[3.1.1]hept-2-en-2-yl)methylamino)-4-phenyl-2H-chromen-2-one], the “pIC50 (-lg[IC50])” value in the data set on RSV A strain A2 (RSV A) amounted to 4.90. In addition, in the data set on RSV A strain A2 (setting [3]), the IC50 was more than 12.6 µM. The EC50 in the data set with RSV A strain A2 (setting [4]) is more than 13 µM. Besides, in data set [1], the CC50 at 24 h was found to be 20.5 ± 1.4 µM. The “cytotoxicity (in words)” value in the data set on HEp-2 cells was “abrupt increase in cytotoxicity”.

Regarding `CC1(C)[C@H]2CC=C(CCNc3ccc4c(-c5ccccc5)cc(=O)oc4c3)[C@@H]1C2` [Compound 22, 7-(2-((1R,5S)-6,6-Dimethylbicyclo[3.1.1]hept-2-en-2-yl)ethylamino)-4-phenyl-2H-chromen-2-one], in the data set with RSV A strain A2, the “SI (selective index)” value was determined as 6. In the data set with RSV A strain A2 (setting [3]), the IC50 was 79.4 µM. The EC50 in the data set with RSV A strain A2 (setting [4]) worked out at 79.9 ± 7.4 µM. The CC50 at 24 h in data set [1] came out at 480 ± 18.4 µM.

`NC(=O)c1ncn([C@@H]2O[C@H](CO)[C@@H](O)[C@H]2O)n1` [Ribavirin, reference compound]: the EC50 in the data set on RSV A strain A2 (setting [5]) was determined as 80.1 ± 13.5 µM. The molecule further gave a CC50 at 24 h in data set [1] of more than 4000 µM.
